Source: PubChem BioAssay AID326 (DTP/NCI, 2004)
Values joined by “and” are separate entries in the source; they are usually repeats but may differ in a detail not shown here. Equal values may be shown once. Inconclusive results and toxic doses are left out.

Tested on: CD2F1 mice, P388/DHAQ leukemia ip, median survival T/C
Test: NCI In Vivo Anticancer Drug Screen. Data for tumor model P388 Leukemia resistant to Dihydroxy Anthracenedione; NSC 299195 (intraperitoneal) in CD2F1 (CDF1) mice
Conditions: endpoint: median survival time, higher = longer survival
Procedure: The antitumor activity of compounds was measured in mice bearing transplantable tumors. Survival or tumor size were measured and the results are expressed as the measurement made in the treated group (T) divided by the measurement made in the vehicle treated control group (C). The tumor model used in this assay is P388 Leukemia resistant to Dihydroxy Anthracenedione; NSC 299195 (intraperitoneal) in CD2F1 (CDF1) mice

In the case of `COc1c(O)c2c(c3cc(C(=O)N4CCc5c4c(O)c(OC)c4[nH]c(C(=O)N6CC7CC78C6=CC(=O)c6[nH]cc(C)c68)cc54)[nH]c13)CCN2C(N)=O` (configuration not stated), the T/C (dose: 0.05 mg/kg/injection, schedule: Q04DX003 (ip), vehicle: DMSO) is reported as 122 % of control, the T/C (dose: 0.09 mg/kg/injection, schedule: Q04DX003 (ip), vehicle: DMSO) is reported as 119 % of control and the T/C (dose: 13.0 micrograms/kg/injection, schedule: Q01DX009 (ip), vehicle: DMSO) is reported as 100 % of control. The T/C (dose: 21.6 micrograms/kg/injection, schedule: Q01DX009 (ip), vehicle: DMSO) was 96 % of control, the T/C (dose: 36.0 micrograms/kg/injection, schedule: Q01DX009 (ip), vehicle: DMSO) was 94 % of control and the T/C (dose: 38.9 micrograms/kg/injection, schedule: Q04DX003 (ip), vehicle: DMSO) was 114 % of control. For the same compound, the T/C (dose: 60.0 micrograms/kg/injection, schedule: Q01DX009 (ip), vehicle: DMSO) was 93 % of control, the T/C (dose: 64.8 micrograms/kg/injection, schedule: Q04DX003 (ip), vehicle: DMSO) was 114 % of control and the T/C (dose: 100.0 micrograms/kg/injection, schedule: Q01DX009 (ip), vehicle: DMSO) was 94 % of control. The T/C (dose: 108.0 micrograms/kg/injection, schedule: Q04DX003 (ip), vehicle: DMSO) was 121 % of control, the T/C (dose: 180.0 micrograms/kg/injection, schedule: Q04DX003 (ip), vehicle: DMSO) was 105 % of control and the T/C (dose: 300.0 micrograms/kg/injection, schedule: Q04DX003 (ip), vehicle: DMSO) was 102 % of control. For the same compound, the T/C (dose: 300.0 micrograms/kg/injection, schedule: Q04DX003 (ip), vehicle: saline) was 100 % of control.
`COc1cccc2c1C(=O)c1c(O)c3c(c(O)c1C2=O)C[C@@](O)(C(=O)CO)C[C@@H]3OC1CC(N)C(O)C(C)O1` (some centres not stated) was tested, and the T/C (dose: 0.97 mg/kg/injection, schedule: Q04DX002 (ip), vehicle: saline) was 118 % of control, the T/C (dose: 1.3 mg/kg/injection, schedule: Q04DX002 (ip), vehicle: saline) was 115 % of control and 120 % of control and the T/C (dose: 2.16 mg/kg/injection, schedule: Q04DX002 (ip), vehicle: saline) was 120 % of control. The T/C (dose: 2.7 mg/kg/injection, schedule: Q04DX002 (ip), vehicle: saline) was 119 % of control, the T/C (dose: 3.6 mg/kg/injection, schedule: Q04DX002 (ip), vehicle: saline) was 123 % of control and the T/C (dose: 6.0 mg/kg/injection, schedule: Q04DX002 (ip), vehicle: saline) was 121 % of control. The T/C (dose: 10.0 mg/kg/injection, schedule: Q04DX002 (ip), vehicle: saline) was 102 % of control and 120 % of control.
With `O=C1c2c(O)ccc(O)c2C(=O)c2c(NCCNCCO)ccc(NCCNCCO)c21` the T/C (dose: 0.65 mg/kg/injection, schedule: Q04DX003 (ip), vehicle: saline) was 112 % of control, the T/C (dose: 0.78 mg/kg/injection, schedule: Q04DX003 (ip), vehicle: saline) was 119 % of control and 111 % of control and the T/C (dose: 1.08 mg/kg/injection, schedule: Q04DX003 (ip), vehicle: saline) was 107 % of control. For the same compound, the T/C (dose: 1.3 mg/kg/injection, schedule: Q04DX002 (ip), vehicle: water) was 112 % of control and 114 % of control and 100 % of control, the T/C (dose: 1.62 mg/kg/injection, schedule: Q04DX003 (ip), vehicle: saline) was 104 % of control and the T/C (dose: 2.16 mg/kg/injection, schedule: Q04DX002 (ip), vehicle: water) was 103 % of control and 120 % of control. For the same compound, the T/C (dose: 2.7 mg/kg/injection, schedule: Q04DX003 (ip), vehicle: saline) was 119 % of control, the T/C (dose: 3.6 mg/kg/injection, schedule: Q04DX002 (ip), vehicle: water) was 104 % of control and 105 % of control and 97 % of control and the T/C (dose: 4.0 mg/kg/injection, schedule: Q04DX002 (ip), vehicle: water) was 100 % of control. For the same compound, the T/C (dose: 4.5 mg/kg/injection, schedule: Q04DX003 (ip), vehicle: saline) was 124 % of control, the T/C (dose: 6.0 mg/kg/injection, schedule: Q04DX002 (ip), vehicle: water) was 93 % of control and 96 % of control and 97 % of control and the T/C (dose: 6.67 mg/kg/injection, schedule: Q04DX002 (ip), vehicle: water) was 106 % of control. For the same compound, the T/C (dose: 7.5 mg/kg/injection, schedule: Q04DX003 (ip), vehicle: saline) was 120 % of control, the T/C (dose: 10.0 mg/kg/injection, schedule: Q04DX002 (ip), vehicle: water) was 87 % of control and 88 % of control and the T/C (dose: 10.0 mg/kg/injection, schedule: Q04DX003 (ip), vehicle: saline) was 109 % of control.
`O=NN(CCCl)C(=O)NC1CCCCC1` was tested, and the T/C (dose: 7.2 mg/kg/injection, schedule: Q04DX003 (ip), vehicle: saline + alcohol) was 192 % of control, the T/C (dose: 12.0 mg/kg/injection, schedule: Q04DX003 (ip), vehicle: saline + alcohol) was 337 % of control and the T/C (dose: 20.0 mg/kg/injection, schedule: Q04DX003 (ip), vehicle: saline + alcohol) was 542 % of control. For the same compound, the T/C (dose: 33.3 mg/kg/injection, schedule: Q04DX003 (ip), vehicle: saline + alcohol) was 202 % of control.
In the case of `C[n+]1ccc(Nc2ccc(NC(=O)c3ccc(Nc4cc[n+](C)c5ccc(N)cc45)cc3)cc2)cc1`, the T/C (dose: 1.94 mg/kg/injection, schedule: Q04DX003 (ip), vehicle: water) is reported as 114 % of control, the T/C (dose: 3.24 mg/kg/injection, schedule: Q04DX003 (ip), vehicle: water) is reported as 116 % of control and the T/C (dose: 5.4 mg/kg/injection, schedule: Q04DX003 (ip), vehicle: water) is reported as 116 % of control.
In the case of `CO[C@H](C(=O)[C@@H](O)[C@@H](C)O)[C@@H]1Cc2cc3cc(OC4CC(OC5CC(O)C(O)C(C)O5)C(O)C(C)O4)c(C)c(O)c3c(O)c2C(=O)[C@H]1OC1CC(OC2CC(OC3CC(C)(O)C(O)C(C)O3)C(O)C(C)O2)C(O)C(C)O1` (some centres not stated), the T/C (dose: 0.22 mg/kg/injection, schedule: Q01DX005 (ip), vehicle: clinical formulation) is reported as 112 % of control, the T/C (dose: 0.36 mg/kg/injection, schedule: Q01DX005 (ip), vehicle: clinical formulation) is reported as 110 % of control and the T/C (dose: 0.6 mg/kg/injection, schedule: Q01DX005 (ip), vehicle: clinical formulation) is reported as 120 % of control. The T/C (dose: 1.0 mg/kg/injection, schedule: Q01DX005 (ip), vehicle: clinical formulation) was 123 % of control.
With `CC(=O)[C@]1(O)Cc2c(O)c3c(c(O)c2[C@@H](OC2CC(N)C(O)C(C)O2)C1)C(=O)c1c(O)cccc1C3=O` (some centres not stated) the T/C (dose: 0.32 mg/kg/injection, schedule: Q04DX003 (ip), vehicle: saline) was 113 % of control, the T/C (dose: 0.54 mg/kg/injection, schedule: Q04DX003 (ip), vehicle: saline) was 111 % of control and the T/C (dose: 1.5 mg/kg/injection, schedule: Q04DX003 (ip), vehicle: saline) was 110 % of control. For the same compound, the T/C (dose: 2.0 mg/kg/injection, schedule: Q04DX003 (ip), vehicle: saline) was 96 % of control and the T/C (dose: 2.5 mg/kg/injection, schedule: Q04DX003 (ip), vehicle: saline) was 95 % of control.
With `O=C(Nc1ccc(C2=NCCCN2)cc1)c1ccc(C(=O)Nc2ccc(C3=NCCCN3)cc2)cc1` the T/C (dose: 4.32 mg/kg/injection, schedule: Q04DX003 (ip), vehicle: Klucel (hydroxypropylcellulose) (HPC)) was 110 % of control, the T/C (dose: 6.48 mg/kg/injection, schedule: Q04DX003 (ip), vehicle: Klucel (hydroxypropylcellulose) (HPC)) was 106 % of control and the T/C (dose: 7.2 mg/kg/injection, schedule: Q04DX003 (ip), vehicle: Klucel (hydroxypropylcellulose) (HPC)) was 110 % of control. The T/C (dose: 10.8 mg/kg/injection, schedule: Q04DX003 (ip), vehicle: Klucel (hydroxypropylcellulose) (HPC)) was 110 % of control and 119 % of control, the T/C (dose: 12.0 mg/kg/injection, schedule: Q04DX003 (ip), vehicle: Klucel (hydroxypropylcellulose) (HPC)) was 112 % of control and the T/C (dose: 18.0 mg/kg/injection, schedule: Q04DX003 (ip), vehicle: Klucel (hydroxypropylcellulose) (HPC)) was 107 % of control and 121 % of control. For the same compound, the T/C (dose: 20.0 mg/kg/injection, schedule: Q04DX003 (ip), vehicle: Klucel (hydroxypropylcellulose) (HPC)) was 111 % of control, the T/C (dose: 30.0 mg/kg/injection, schedule: Q04DX003 (ip), vehicle: Klucel (hydroxypropylcellulose) (HPC)) was 100 % of control and the T/C (dose: 50.0 mg/kg/injection, schedule: Q04DX003 (ip), vehicle: Klucel (hydroxypropylcellulose) (HPC)) was 107 % of control.
`CCN(CC)CCNc1ccc(C)c2sc3ccccc3c(=O)c12` was tested, and the T/C (dose: 16.2 mg/kg/injection, schedule: Q01DX005 (ip), vehicle: saline) was 106 % of control, the T/C (dose: 19.4 mg/kg/injection, schedule: Q01DX005 (ip), vehicle: saline) was 100 % of control and the T/C (dose: 19.44 mg/kg/injection, schedule: Q01DX005 (ip), vehicle: saline) was 106 % of control. The T/C (dose: 27.0 mg/kg/injection, schedule: Q01DX005 (ip), vehicle: saline) was 107 % of control, the T/C (dose: 32.4 mg/kg/injection, schedule: Q01DX005 (ip), vehicle: saline) was 102 % of control and 113 % of control and the T/C (dose: 38.9 mg/kg/injection, schedule: Q04DX003 (ip), vehicle: saline) was 106 % of control. For the same compound, the T/C (dose: 45.0 mg/kg/injection, schedule: Q01DX005 (ip), vehicle: saline) was 121 % of control, the T/C (dose: 54.0 mg/kg/injection, schedule: Q01DX005 (ip), vehicle: saline) was 106 % of control and 124 % of control and the T/C (dose: 64.8 mg/kg/injection, schedule: Q04DX003 (ip), vehicle: saline) was 104 % of control. For the same compound, the T/C (dose: 90.0 mg/kg/injection, schedule: Q01DX005 (ip), vehicle: saline) was 112 % of control, the T/C (dose: 108.0 mg/kg/injection, schedule: Q04DX003 (ip), vehicle: saline) was 120 % of control and the T/C (dose: 125.0 mg/kg/injection, schedule: Q01DX005 (ip), vehicle: saline) was 105 % of control.
